Consider 3 compounds from patent US8299267B2, “(3-hydroxy-4-amino-butan-2-yl) -3- (2-thiazol-2-yl-pyrrolidine-1-carbonyl) benzamide derivatives and related compounds as beta-secretase inhibitors for treating” (CoMentis, Inc., priority 2007, dated 2012).

Where two headings read alike, the source gives them in different places.

In general, IC50 refers to the concentration that gives 50% inhibition. Lower therefore signals inhibition by little substance.

One assay addresses cathepsin D (Homo sapiens, UniProt P07339). In words: Inhibition of cathepsin D activity (substrate peptide ELDLAVEFWHDR, MALDI-TOF). The format is biochemical. The method, then:
[The procedure below names another target; the source lists this target under the same test.] (§1) A substrate peptide NH3-ELDLAVEFWHDR-CO2 (SEQ ID NO.: 1) was dissolved at 2 mg/mL in 10% glacial acetic acid and diluted into 0.009M NaOH to obtain μM concentration at pH 4.1. After equilibration at 37 degrees C., the reactions were initiated by the addition of an aliquot of memapsin 2. Aliquots were removed at time intervals, and combined with an equal volume of MALDI-TOF matrix (α-hydroxycinnamic acid in acetone, 20 mg/mL) and immediately spotted in duplicate onto a stainless-steel MALDI sample plate. MALDI-TOF mass spectrometry was performed on a PE Biosystems Voyager DE. The instrument was operated at 25,000 accelerating volts in positive mode with a 150 ns delay. Ions with a mass-to-charge ratio (m/z) were detected in the range of 650-2000 atomic mass units. Data were analyzed by the Voyager Data Explorer module to obtain ion intensity data for mass species of substrates and corresponding products in a given mixture. Relative product formation was calculated as the ratio of signal intensity of the product to the sum of signal intensities of both product and the corresponding substrate. Relative product formed per unit time was obtained from non-linear regression analysis of the data representing the initial 15% formation of product using the model: 1−e^−kT, where k was the relative hydrolytic rate constant and T was time in seconds. Initial rates were expressed relative to uninhibited controls and fit to a tight-binding model of competitive inhibition as above.

The target in another assay is T1, memapsin 1 (Homo sapiens, UniProt Q9Y5Z0).
T1 sequence (Q9Y5Z0 63-518): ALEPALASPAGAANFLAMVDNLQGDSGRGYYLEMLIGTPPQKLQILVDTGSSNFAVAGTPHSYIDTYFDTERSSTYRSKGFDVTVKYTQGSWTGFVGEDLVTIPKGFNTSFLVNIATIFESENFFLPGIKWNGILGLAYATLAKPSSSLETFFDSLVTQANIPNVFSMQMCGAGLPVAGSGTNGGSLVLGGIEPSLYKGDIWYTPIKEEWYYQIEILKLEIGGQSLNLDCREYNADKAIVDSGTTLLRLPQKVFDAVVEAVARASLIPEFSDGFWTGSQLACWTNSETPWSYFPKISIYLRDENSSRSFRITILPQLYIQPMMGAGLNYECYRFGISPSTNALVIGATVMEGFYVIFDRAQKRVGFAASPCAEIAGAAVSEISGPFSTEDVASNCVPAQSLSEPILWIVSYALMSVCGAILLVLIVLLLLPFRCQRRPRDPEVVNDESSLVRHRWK
In words: Inhibition of memapsin 1 beta-secretase activity (substrate peptide ELDLAVEFWHDR, MALDI-TOF). The format is biochemical. On the procedure:
[The procedure below names another target; the source lists this target under the same test.] as §1

The test system of assay [1] is Aβ production in Chinese hamster ovary cells that over-express human APP695 with the London and Swedish mutations. As to the kind of experiment: Cellular Aβ IC50 determination (Aβ40 sandwich ELISA). To be noted: Cricetulus griseus. The class given is cell-based. The gist of the method:
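APP695 (London/Swedish)-overexpressing CHO cells were treated 48 h after seeding with serial dilutions from near 4 μM top concentration (0.4% DMSO) for 24 h at 37 °C. Secreted Aβ40 was quantified by sandwich ELISA relative to controls and fit to a 4-parameter IC50 model.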
Background: ELISA stands for enzyme-linked immunosorbent assay.

For another assay, the target named is memapsin 2 (Homo sapiens, UniProt P56817). As to the kind of experiment: Inhibition of memapsin 2 beta-secretase activity toward fluorogenic substrate FS-2. The format is biochemical. The method in brief: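 Memapsin 2 was preincubated with compound 20 min at pH 4, 37 °C, then reacted with fluorogenic substrate FS-2 (MCA-SEVNLDAEFK-DNP), an APP-derived Swedish-variant peptide. Inhibition was followed kinetically by fluorescence.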

Where [2] appears, read: cathepsin D, pH 4.1, 37 degrees C., read-out: CDKi.
Setting [3] is: memapsin 1, pH 4.1, 37 degrees C., read-out: M1Ki.
The mark [4] stands for this setting: Aβ40 in CHO cells over-expressing human APP695, 24 h incubation.
The mark [5] stands for this setting: memapsin 2, pH 4, 37° C., 20 minutes pre-incubation, substrate FS-2, read-out: M2Ki.

Chain of memapsin 2 (P56817 46-501): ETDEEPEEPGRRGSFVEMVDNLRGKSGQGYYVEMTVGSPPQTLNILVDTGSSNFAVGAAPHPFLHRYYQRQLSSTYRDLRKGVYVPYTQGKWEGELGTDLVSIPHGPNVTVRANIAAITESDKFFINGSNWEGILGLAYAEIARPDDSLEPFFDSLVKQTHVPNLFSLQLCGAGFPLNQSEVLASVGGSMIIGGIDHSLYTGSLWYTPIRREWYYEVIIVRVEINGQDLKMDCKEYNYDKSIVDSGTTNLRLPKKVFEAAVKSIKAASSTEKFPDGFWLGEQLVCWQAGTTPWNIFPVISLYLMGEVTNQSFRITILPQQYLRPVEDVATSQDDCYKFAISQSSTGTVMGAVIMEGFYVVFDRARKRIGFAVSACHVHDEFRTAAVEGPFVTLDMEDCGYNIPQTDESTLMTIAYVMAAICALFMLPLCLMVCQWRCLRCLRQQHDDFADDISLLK
Chain of cathepsin D (P07339 65-412, species assumed): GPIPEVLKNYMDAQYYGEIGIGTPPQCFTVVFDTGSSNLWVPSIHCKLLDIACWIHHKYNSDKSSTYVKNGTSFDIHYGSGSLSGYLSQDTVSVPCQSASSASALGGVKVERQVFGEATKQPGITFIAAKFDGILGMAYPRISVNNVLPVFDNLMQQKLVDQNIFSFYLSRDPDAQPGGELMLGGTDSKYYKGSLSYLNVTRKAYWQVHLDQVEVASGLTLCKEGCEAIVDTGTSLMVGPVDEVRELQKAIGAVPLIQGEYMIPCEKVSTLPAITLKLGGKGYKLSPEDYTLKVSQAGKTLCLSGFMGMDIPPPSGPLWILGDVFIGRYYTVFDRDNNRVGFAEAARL

Turning to `Cc1csc([C@H]2CCCN2C(=O)c2cccc(C(=O)N[C@@H](Cc3ccccc3)[C@H](O)CNCc3cccc(C(F)(F)F)c3)c2)n1` [N-((2S,3R)-3-hydroxy-1-phenyl-4-(3-(trifluoromethyl)benzylamino)butan-2-yl)-3-((R)-2-(4-methylthiazol-2-yl)pyrrolidine-1-carbonyl)benzamide], the results for the Ki at cathepsin D (read-out: CathD Ki), on memapsin 1 (read-out: M1 Ki) and at memapsin 2 (read-out: M2 Ki) were 1080 nM, 826 nM and 7.09 nM, respectively. The compound further returned an IC50 in assay [1] (cellular Aβ) of 23 nM.
Consider `Cc1cc(C(=O)N[C@@H](Cc2ccccc2)[C@H](O)CNCc2cccc(C(F)(F)F)c2)cc(C(=O)N2CCC[C@@H]2c2nc(C)cs2)c1` [Compound 12, N-((2S,3R)-3-hydroxy-1-phenyl-4-(3-(trifluoromethyl)benzylamino)butan-2-yl)-3-methyl-5-((R)-2-(4-methylthiazol-2-yl)pyrrolidine-1-carbonyl)benzamide], for which the values for the Ki at cathepsin D (setting [2]), on memapsin 1 (setting [3]) and at memapsin 2 (setting [5]) were above 501 nM, below 300 nM and below 100 nM, respectively. The compound also had an IC50 in assay [1] (setting [4]) below 300 nM.
On to `Cc1csc([C@H]2CCCN2C(=O)c2cccc(C(=O)N[C@@H](Cc3ccccc3)[C@H](O)CNCc3cccc(C(C)(C)C)c3)c2)n1` [Compound 10, N-((2S,3R)-4-(3-tert-butylbenzylamino)-3-hydroxy-1-phenylbutan-2-yl)-3-((R)-2-(4-methylthiazol-2-yl)pyrrolidine-1-carbonyl)benzamide], for which the Ki at cathepsin D (setting [2]) was above 501 nM; at memapsin 1 (setting [3]), 301 to 500 nM; on memapsin 2 (setting [5]), below 100 nM. For the same compound, the IC50 in assay [1] (setting [4]) is below 300 nM.
